Columns and labels:
Assay type in all cases: cell-based
[1] = tested on: Butyric acid bacterium: Clostridium butyricum NBRC 13949T; details: 2 mM or 20 mM Al solution in culture medium, anaerobic shaking culture 37° C.; FIG. 3 / FIG. 6
[2] = tested on: Sulfate-reducing bacterium: Desulfovibrio vulgaris DSM 644T
[3] = tested on: Colon bacillus: Escherichia coli NBRC 102203T; assay: Proliferation-inhibiting (bacteriostatic) effect in Al-added culture medium, protein amount by BCA method; details: 2 mM or 20 mM Al solution in culture medium, anaerobic shaking culture 37° C.; FIG. 2 / FIG. 5

Row | Compound | proliferation of the butyric acid bacterium (increase in protein amount) [1] | proliferation of the sulfate-reducing bacterium (increase in protein amount) [2] | selective bacteriostatic effect (sulfate-reducing bacterium versus colon bacillus and butyric acid bacterium) [2] | proliferation of the colon bacillus (increase in protein amount) [3]
1 | citric acid/Al chelate [Example 1] | not inhibited | inhibited | selective bacteriostatic effect was recognized | not inhibited
2 | oxalic acid/Al chelate [Example 2] |  |  | same selective bacteriostatic effects as in Example 1 were also recognized | 
3 | EDTA/Al chelate [Example 3] |  |  | same selective bacteriostatic effects as in Example 1 were also recognized | 
4 | [Cl][Al]([Cl])[Cl] [Comparative Example 1, AlCl3, reference compound] | inhibited | inhibited |  | inhibited

— patent US20150216177A1, “METHOD FOR SELECTIVELY INHIBITING SULFATE-REDUCING BACTERIUM, GYPSUM COMPOSITION CAPABLE OF INHIBITING PROLIFERATION OF SULFATE-REDUCING BACTERIUM BY SAID METHOD, GYPSUM-TYPE SOLIDIFYING MATERIAL, AND GYPSUM-TYPE BUILDING MATERIAL” (priority 2012, published 2015)
